Results taken from ChEMBL document CHEMBL5247584, “Design, synthesis and evaluation of fused hybrids with acetylcholinesterase inhibiting and Nrf2 activating functions for Alzheimer's disease” (Eur J Med Chem, 2022).
Calls of active or inactive are those of the source. The calls are words filed in the database; no cut-off is given here.

What was measured:
[1] = system: BV-2; assay: Antiinflammatory activity against LPS-injured mouse BV-2 cells assessed as decrease in IL-1beta level at 5 uM by immunofluorescence staining based analysis; assay type: functional, cell-based
[2] = target: Acetylcholinesterase (Electrophorus electricus, UniProt O42275); assay: Inhibition of electric eel AChE using ATC and BTC iodide as substrate preincubated for 5 mins followed by substrate addition and measured after 2 mins by DTNB reagent based assay
Chain of Acetylcholinesterase (Electrophorus electricus, UniProt O42275) (O42275 whole entry): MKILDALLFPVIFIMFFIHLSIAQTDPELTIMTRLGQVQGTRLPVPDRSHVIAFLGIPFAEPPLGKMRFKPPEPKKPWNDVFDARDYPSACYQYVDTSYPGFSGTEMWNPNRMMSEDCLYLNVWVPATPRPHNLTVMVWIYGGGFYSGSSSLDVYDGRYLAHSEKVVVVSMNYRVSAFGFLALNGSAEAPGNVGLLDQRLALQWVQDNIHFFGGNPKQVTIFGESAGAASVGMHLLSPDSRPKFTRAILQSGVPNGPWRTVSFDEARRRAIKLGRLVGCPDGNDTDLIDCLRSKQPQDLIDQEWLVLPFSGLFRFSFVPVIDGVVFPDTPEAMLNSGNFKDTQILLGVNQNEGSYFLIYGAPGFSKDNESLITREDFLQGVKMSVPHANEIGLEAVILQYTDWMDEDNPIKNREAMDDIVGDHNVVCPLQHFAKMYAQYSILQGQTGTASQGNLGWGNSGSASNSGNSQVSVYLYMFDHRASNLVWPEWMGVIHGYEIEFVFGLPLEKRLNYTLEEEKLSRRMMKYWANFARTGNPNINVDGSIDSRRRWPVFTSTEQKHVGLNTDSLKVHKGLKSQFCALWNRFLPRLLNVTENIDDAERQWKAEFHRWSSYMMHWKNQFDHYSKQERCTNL

[3] = target: Acetylcholinesterase (Homo sapiens, UniProt P22303); assay: Inhibition of human AChE using ATC and BTC iodide as substrate preincubated for 5 mins followed by substrate addition and measured after 2 mins by DTNB reagent based assay
Chain of Acetylcholinesterase (Homo sapiens, UniProt P22303) (P22303 whole entry): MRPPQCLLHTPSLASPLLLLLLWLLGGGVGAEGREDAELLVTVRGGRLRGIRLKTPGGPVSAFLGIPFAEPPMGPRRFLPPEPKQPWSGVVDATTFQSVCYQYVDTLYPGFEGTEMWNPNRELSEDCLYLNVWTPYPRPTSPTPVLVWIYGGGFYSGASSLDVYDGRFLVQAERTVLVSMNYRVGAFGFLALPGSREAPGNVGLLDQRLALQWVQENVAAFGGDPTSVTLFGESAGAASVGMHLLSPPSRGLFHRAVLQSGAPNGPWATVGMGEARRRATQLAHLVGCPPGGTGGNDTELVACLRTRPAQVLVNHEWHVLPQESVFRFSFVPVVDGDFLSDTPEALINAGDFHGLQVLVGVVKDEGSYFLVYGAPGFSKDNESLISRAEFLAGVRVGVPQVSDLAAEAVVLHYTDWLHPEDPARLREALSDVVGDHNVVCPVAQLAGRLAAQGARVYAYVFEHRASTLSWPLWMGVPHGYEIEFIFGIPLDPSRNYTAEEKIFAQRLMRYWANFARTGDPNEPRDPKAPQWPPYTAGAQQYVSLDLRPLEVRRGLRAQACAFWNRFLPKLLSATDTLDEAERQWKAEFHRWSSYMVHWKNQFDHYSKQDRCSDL

[4] = system: HepG2-ARE-C8; assay: Cytotoxicity against human HepG2-ARE-C8 cells assessed as reduction in cell viability at 5 and 20 uM measured for 24 hrs by MTT assay; assay type: functional, cell-based
[5] = Hepatotoxicity in […] assessed as effect on AST level; assay type: toxicity, cell-based
[6] = Hepatotoxicity in […] assessed as effect on ALT level; assay type: toxicity, cell-based
[7] = […] in rat PC12 cells assessed as morphological changes; assay type: toxicity, cell-based; details: pc-12
[8] = system: PC-12; assay: Cytotoxicity against rat PC12 cells assessed as growth inhibition at 5 uM after 24 hrs by MTT assay; assay type: toxicity, cell-based; details: pc-12, 24 h
[9] = target: T1, Nuclear factor erythroid 2-related factor 2 (Rattus norvegicus) (UniProt O54968); assay: Activation of Nrf2 pathway in rat PC-12 cells assessed as increase in NQO1 level at 20 uM measured after 6 hrs by Western blot analysis; assay type: cell-based; details: PC12, filed as activator
T1 sequence (whole entry): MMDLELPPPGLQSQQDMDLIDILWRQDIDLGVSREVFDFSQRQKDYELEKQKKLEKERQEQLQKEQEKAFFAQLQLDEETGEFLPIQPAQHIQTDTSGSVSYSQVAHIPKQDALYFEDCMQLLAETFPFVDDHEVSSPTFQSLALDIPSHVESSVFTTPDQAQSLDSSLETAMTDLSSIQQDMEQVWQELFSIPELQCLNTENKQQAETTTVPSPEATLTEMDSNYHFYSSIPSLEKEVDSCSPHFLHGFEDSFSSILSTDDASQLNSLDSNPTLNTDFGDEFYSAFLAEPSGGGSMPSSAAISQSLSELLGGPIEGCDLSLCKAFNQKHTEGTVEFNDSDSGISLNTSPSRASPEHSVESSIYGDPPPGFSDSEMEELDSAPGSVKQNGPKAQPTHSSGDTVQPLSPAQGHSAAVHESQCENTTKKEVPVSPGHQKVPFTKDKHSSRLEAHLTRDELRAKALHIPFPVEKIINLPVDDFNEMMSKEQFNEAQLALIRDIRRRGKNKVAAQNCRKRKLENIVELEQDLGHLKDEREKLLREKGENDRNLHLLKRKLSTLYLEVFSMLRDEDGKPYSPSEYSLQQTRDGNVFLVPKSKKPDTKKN

[10] = target: T1, Nuclear factor erythroid 2-related factor 2 (Rattus norvegicus); assay: Activation of Nrf2 pathway in rat PC-12 cells assessed as increase in HO-1 level at 20 uM measured after 6 hrs by Western blot analysis; assay type: cell-based; details: PC12, filed as activator
[11] = target: T1, Nuclear factor erythroid 2-related factor 2 (Rattus norvegicus); assay: Activation of Nrf2 pathway in rat PC-12 cells assessed as increase in GCLM level at 20 uM measured after 6 hrs by Western blot analysis; assay type: cell-based; details: PC12, filed as activator
[12] = target: T1, Nuclear factor erythroid 2-related factor 2 (Rattus norvegicus); assay: Induction of Nrf2 pathway in rat PC12 cells assessed as fold increase in Nrf2 level at 20 uM measured after 6 hrs by Western blot analysis; assay type: cell-based; details: filed as activator
[13] = target: T1, Nuclear factor erythroid 2-related factor 2 (Rattus norvegicus); assay: Activation of Nrf2 pathway in rat PC-12 cells assessed as fold increase in Nrf2 level at 20 uM measured at 2 hrs by qRT-PCR analysis; assay type: cell-based; details: PC12, filed as activator
[14] = target: T1, Nuclear factor erythroid 2-related factor 2 (Rattus norvegicus); assay: Activation of Nrf2 pathway in rat PC-12 cells assessed as fold increase in HO-1 level at 20 uM measured at 2 hrs by qRT-PCR analysis; assay type: cell-based; details: PC12, filed as activator
[15] = target: T1, Nuclear factor erythroid 2-related factor 2 (Rattus norvegicus); assay: Activation of Nrf2 pathway in rat PC-12 cells assessed as fold increase in NQO1 level at 20 uM measured at 2 hrs by qRT-PCR analysis; assay type: cell-based; details: PC12, filed as activator
[16] = target: T1, Nuclear factor erythroid 2-related factor 2 (Rattus norvegicus); assay: Activation of Nrf2 pathway in rat PC-12 cells assessed as fold increase in GCLM level at 20 uM measured at 2 hrs by qRT-PCR analysis; assay type: cell-based; details: PC12, filed as activator
[17] = target: T1, Nuclear factor erythroid 2-related factor 2 (Rattus norvegicus); assay: Activation of Nrf2 pathway in rat PC-12 cells assessed as fold increase in Nrf2 expression level at 1 to 20 uM measured at 6 hrs by qRT-PCR analysis; assay type: cell-based; details: PC12, filed as activator, dose 1-20 µM
[18] = target: T1, Nuclear factor erythroid 2-related factor 2 (Rattus norvegicus); assay: Activation of Nrf2 pathway in rat PC-12 cells assessed as fold increase in HO-1 expression level at 1 to 20 uM measured at 6 hrs by qRT-PCR analysis; assay type: cell-based; details: PC12, filed as activator, dose 1-20 µM
[19] = target: T1, Nuclear factor erythroid 2-related factor 2 (Rattus norvegicus); assay: Activation of Nrf2 pathway in rat PC-12 cells assessed as decrease in Nrf2 accumulation in cytoplasm at 20 uM measured after 1 to 5 hrs by Western blot analysis; assay type: cell-based; details: PC12, time 1-5 hrs
[20] = target: T1, Nuclear factor erythroid 2-related factor 2 (Rattus norvegicus); assay: Induction of Nrf2 nuclear translocation in rat PC12 cells measured for 12 hrs by FITC staining based confocal microscopic analysis; assay type: cell-based; details: filed as activator
[21] = system: SH-SY5Y; assay: Neuroprotective activity against Abeta1-42-induced human SH-SY5Y cells assessed as reduction in cell damage preinubated for 2 hrs followed by Abeta1-42 induction and measured after 24 hrs by MTT assay; assay type: functional, cell-based; details: time 26.0 hrs
[22] = system: SH-SY5Y; assay: Antiproliferative activity against human SH-SY5Y cells assessed as reduction in cell viability measured for 24 hrs by MTT assay; assay type: functional, cell-based
[23] = system: SH-SY5Y; assay: Neuroprotective activity against Abeta1-42-induced human SH-SY5Y cells assessed as inhibition of ROS production preincubated for 24 hrs followed by Abeta1-42 induction and measured after 24 hrs by DCFH-DA staining based fluorescence microscopic anlaysis; assay type: functional, cell-based; details: dose 5.0 µM
[24] = system: Mus musculus; assay: Antialzheimer activity against scopolamine-induced cognitive impairment ICR mouse model assessed as reduction in escape latency at 3 mg/kg, po administered once a day for 10 days and measured after 5 to 10 days by Morris water maze test; assay type: functional, organism-based; details: time 5-10 day
[25] = system: Mus musculus; assay: Antialzheimer activity against scopolamine-induced cognitive impairment ICR mouse model assessed as decrease in arrival time at 3 mg/kg, po administered once a day for 10 days and measured after 5 to 10 days by Morris water maze test; assay type: functional, organism-based; details: time 5-10 day
[26] = system: Mus musculus; assay: Antiinflammatory activity Abeta1-42-induced against ICR mouse assessed as increase in TGF-beta1 level at 10 mg/kg, po by ELISA analysis; assay type: functional, organism-based
[27] = system: Mus musculus; assay: Neuroprotective activity against Abeta1-42-induced ICR mouse at 10 mg/kg, po by ELISA analysis; assay type: functional, organism-based
[28] = system: Mus musculus; assay: Neuroprotective activity against Abeta1-42-induced ICR mouse at 20 mg/kg, po by ELISA analysis; assay type: functional, organism-based
[29] = system: Mus musculus; assay: Cognitive enhancing effect in amyloid beta (1 to 42)-induced ICR mouse model assessed as increase in ACh level at 10 mg/kg […] by ELISA; assay type: functional, organism-based
[30] = system: Mus musculus; assay: Cognitive enhancing effect in amyloid beta (1 to 42)-induced ICR mouse model assessed as increase in ACh level at 20 mg/kg […] by ELISA; assay type: functional, organism-based

Q: Which Activity [1] does the source give for `Cc1ccc(-c2noc(-c3cccc(OCC4CCN(Cc5cccc(F)c5)CC4)c3)n2)cn1` here?
A: Its Activity is “inactive”.

Q: What about the IC50 [2] of the same compound?
A: Its IC50 is 70 nM.

Q: What about the IC50 [3] of the same compound?
A: The IC50 was 380 nM.

Q: What about the Activity [4] of the same compound?
A: Its Activity is “inactive”.

Q: And the Activity [5]?
A: The Activity was “Non-Toxic”.

Q: What about the Activity [6] of the same compound?
A: Its Activity is “Non-Toxic”.

Q: And the Activity [7]?
A: Its Activity is “Non-Toxic”.

Q: What about the Activity [8] of the same compound?
A: The Activity was “Non-Toxic”.

Q: What about the Activity [9] of the same compound?
A: The Activity was “Active”.

Q: And the Activity [10]?
A: Its Activity is “Active”.

Q: And the Activity [11]?
A: The Activity was “Active”.

Q: And the fold change (FC) [12]?
A: Its fold change (FC) is 4.

Q: What about the fold change (FC) [13] of the same compound?
A: The fold change (FC) was 4.

Q: And the fold change (FC) [14]?
A: Its fold change (FC) is 4.

Q: And the fold change (FC) [15]?
A: The fold change (FC) was 8.

Q: And the fold change (FC) [16]?
A: Its fold change (FC) is 8.

Q: What about the fold change (FC) [17] of the same compound?
A: The fold change (FC) was 4.

Q: What about the fold change (FC) [18] of the same compound?
A: The fold change (FC) was 4.

Q: And the Activity [19]?
A: The Activity was “inactive”.

Q: What about the Activity [20] of the same compound?
A: Its Activity is “Active”.

Q: And the Activity [21]?
A: The Activity was “Active”.

Q: What about the Activity [22] of the same compound?
A: The Activity was “inactive”.

Q: And the Activity [23]?
A: Its Activity is “Dose-Dependent Effect”.

Q: What about the Activity [24] of the same compound?
A: Its Activity is “Active”.

Q: And the Activity [25]?
A: Its Activity is “Active”.

Q: And the Activity [26]?
A: Its Activity is “Active”.

Q: And the Activity [27]?
A: The Activity was “Active”.

Q: And the Activity [28]?
A: The Activity was “inactive”.

Q: What about the Activity [29] of the same compound?
A: Its Activity is “Active”.

Q: And the Activity [30]?
A: The Activity was “inactive”.
